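Exposure lasted 48 hours, with cells grown in 96-well plates and compounds tested at five concentrations. The concentration for 50% growth inhibition is given as GI50.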 Active and inactive are the calls of the source. Cut-off read from the data, not from the text of the source: active = GI50 up to about 1.1 µM and inactive = higher.
Experiments:
Experiment in all cases: NCI anticancer screen, dose series, 48 h
[1] = tested on: SK-MEL-28
[2] = tested on: HOP-62
[3] = tested on: BT-549
[4] = tested on: OVCAR-5
[5] = tested on: NCI/ADR-RES
[6] = tested on: SW-620
[7] = tested on: SNB-19
[8] = tested on: SNB-75
[9] = tested on: CCRF-CEM
[10] = tested on: KM12
[11] = tested on: SK-MEL-2
[12] = tested on: ACHN
[13] = tested on: Hs-578T
[14] = tested on: A549
[15] = tested on: MDA-MB-435
[16] = tested on: SK-OV-3
[17] = tested on: NCI-H522
[18] = tested on: HL-60
[19] = tested on: K562

SMILES | GI50 [1] | GI50 [2] | GI50 [3] | GI50 [4] | GI50 [5] | GI50 [6] | GI50 [7] | GI50 [8] | GI50 [9] | GI50 [10] | GI50 [11] | GI50 [12] | GI50 [13] | GI50 [14] | GI50 [15] | GI50 [16] | GI50 [17] | GI50 [18] | GI50 [19]
COc1cccc(C(=O)C(O)c2cccc(OC)c2OC)c1OC (stereo not given) | > 100 µM (inactive) | > 100 µM (inactive) | > 100 µM (inactive) | > 100 µM (inactive) | > 100 µM (inactive) | > 100 µM (inactive) | > 100 µM (inactive) | > 100 µM (inactive) | > 100 µM (inactive) | > 100 µM (inactive) | > 100 µM (inactive) | > 100 µM (inactive) | > 100 µM (inactive) | > 100 µM (inactive) | > 100 µM (inactive) | > 100 µM (inactive) | > 100 µM (inactive) | > 100 µM (inactive) | –
CCOC(=O)c1nc2ccc(C(F)(F)F)cc2nc1Nc1ccc(Cl)c(Cl)c1 | > 100 µM (inactive) | 27.5 µM (inactive) | > 100 µM (inactive) | > 100 µM (inactive) | > 100 µM (inactive) | > 100 µM (inactive) | 42.5 µM (inactive) | 48.8 µM (inactive) | 86.1 µM (inactive) | 75.9 µM (inactive) | – | 97.1 µM (inactive) | 97.3 µM (inactive) | 67.8 µM (inactive) | > 100 µM (inactive) | > 100 µM (inactive) | > 100 µM (inactive) | 95.7 µM (inactive) | 39.4 µM (inactive)
N#CCCC1C(C#N)C2CC1C1C3C=CC(C3)C21 (stereo not given) | > 100 µM (inactive) | – | > 100 µM (inactive) | > 100 µM (inactive) | > 100 µM (inactive) | > 100 µM (inactive) | > 100 µM (inactive) | > 100 µM (inactive) | > 100 µM (inactive) | > 100 µM (inactive) | > 100 µM (inactive) | > 100 µM (inactive) | > 100 µM (inactive) | > 100 µM (inactive) | > 100 µM (inactive) | > 100 µM (inactive) | > 100 µM (inactive) | > 100 µM (inactive) | > 100 µM (inactive)
CC(=O)Oc1c2ccsc2c(OC(C)=O)c2ccsc12 | 0.329 µM (active) | 1.27 µM (inactive) | 0.384 µM (active) | 2.47 µM (inactive) | 0.284 µM (active) | 1.08 µM (active) | 1.47 µM (inactive) | 0.286 µM (active) | 0.859 µM (active) | 1.67 µM (inactive) | 0.138 µM (active) | 0.667 µM (active) | 0.354 µM (active) | 0.224 µM (active) | 0.179 µM (active) | 2.86 µM (inactive) | 0.483 µM (active) | 0.647 µM (active) | –
Cc1ccc(C(=O)N(Cc2ccccc2)Cc2ccccc2)cc1/N=N/N(C)C | 19.3 µM (inactive) | 23.1 µM (inactive) | 18.5 µM (inactive) | 39.2 µM (inactive) | 22.5 µM (inactive) | 43.1 µM (inactive) | 15 µM (inactive) | – | 24.2 µM (inactive) | 8.32 µM (inactive) | 3.08 µM (inactive) | 7.01 µM (inactive) | 19.3 µM (inactive) | 17.5 µM (inactive) | 22.4 µM (inactive) | 29.5 µM (inactive) | 9.44 µM (inactive) | 22.6 µM (inactive) | 27.2 µM (inactive)
Clc1cccc(/N=C/C=C/Nc2cccc(Cl)c2)c1 | 16.1 µM (inactive) | 16.8 µM (inactive) | 16.1 µM (inactive) | 24.8 µM (inactive) | 16.9 µM (inactive) | 22.9 µM (inactive) | > 10 µM (inactive) | > 10 µM (inactive) | > 10 µM (inactive) | 14.1 µM (inactive) | – | > 10 µM (inactive) | 29.8 µM (inactive) | 28.5 µM (inactive) | 15.6 µM (inactive) | – | 14.8 µM (inactive) | 18.9 µM (inactive) | –
S=c1sc2ccccc2n1CN1CCN(Cc2ccccc2)CC1 | – | > 100 µM (inactive) | > 100 µM (inactive) | > 100 µM (inactive) | > 100 µM (inactive) | > 100 µM (inactive) | > 100 µM (inactive) | > 100 µM (inactive) | > 100 µM (inactive) | > 100 µM (inactive) | > 100 µM (inactive) | > 100 µM (inactive) | > 100 µM (inactive) | > 100 µM (inactive) | > 100 µM (inactive) | > 100 µM (inactive) | > 100 µM (inactive) | > 100 µM (inactive) | > 100 µM (inactive)
C[n+]1c(-c2ccc(/C=N\N3CCN(/N=C/c4ccc(-c5cn6ccccc6[n+]5C)cc4)CC3)cc2)cn2ccccc21 | – | – | 35 µM (inactive) | > 100 µM (inactive) | > 100 µM (inactive) | 76.6 µM (inactive) | 32 µM (inactive) | 39.4 µM (inactive) | 34.2 µM (inactive) | 55.3 µM (inactive) | 56.8 µM (inactive) | 45.1 µM (inactive) | 29.3 µM (inactive) | > 100 µM (inactive) | 34.5 µM (inactive) | > 100 µM (inactive) | 83.9 µM (inactive) | 21.2 µM (inactive) | –
